{"source": "paper PMC6985109", "about": "“Cellular apoptosis and necrosis as therapeutic targets for novel Eugenol Tosylate Congeners against Candida albicans” (Scientific Reports, 2020)", "test_system": "C. albicans 4175, C. albicans 5112 and C. albicans SC5314", "experiment": "TUNEL assay for DNA damage", "assay_type": "cell-based, Candida albicans", "conditions": "0.5 × MIC, 1 × MIC and 2 × MIC, compared to the negative control; dose dependent", "experimental": "To study the effect of test compounds on apoptotic markers protoplasts were prepared as described previously, with modifications. Briefly, mid-exponential phase cells were harvested and exposed to various concentrations of test compounds (0.5 × MIC, 1 × MIC and 2×MIC) for 3 h. The cells were then washed twice with protoplast buffer- I (1 M sorbitol, 50 mM tris base, 10 mM MgCl2 and 30 mM DTT) and incubated in the same buffer for 15 minutes at 25 °C, followed by centrifugation at 1500 rpm for 5 minutes. Supernatant was removed and cells were incubated with buffer- II (1 M sorbitol, 50 mM tris base, 10 mM MgCl2 and 1 mM DTT) supplemented with lyticase enzyme (≥1 µg/mL) used to digest the cell wall for 1 h at 25 °C. Buffer- II were removed by centrifugation and then cells were incubated with buffer- III (1 M sorbitol, 50 mM tris base and 10 mM MgCl2) for 20 minutes at room temperature. After the incubation cells were again centrifuged at 1500 rpm for 5 minutes and supernatant was discarded. […]\nTUNEL assay was used to detect the DNA damage, a hallmark for late stages of apoptosis. […] Slides were examined by fluorescence microscopy using Zeiss Laser Scanning Confocal Microscope (LSM) 780 (Carl Zeiss Microscopy, Jena, Germany) with an excitation wavelength of 495 nm and emission wavelength of 519 nm. […] Images were further analyzed by using software ImageJ."}
{"smiles": "C=CCc1ccc(OS(=O)(=O)c2ccc(C(=O)O)cc2)c(OC)c1", "note": "[ETC-7, 4-{[2-methoxy-4-(prop-2-en-1-yl)phenoxy]sulfonyl}benzoic acid]", "values": [{"measurement": "TUNEL positive nuclei (DNA fragmentation)", "result": "significant increase in proportion of TUNEL positive nuclei"}]}
